{
  "source": "patent US20200253996A1",
  "about": "“TCTP INHIBITING AGENTS FOR THE TREATMENT OF PROLIFERATIVE DISEASES, INFECTIOUS DISEASES, ALLERGIES, INFLAMMATIONS AND/OR ASTHMA” (UNIVERSITE PARIS-SUD, priority 2017, published 2020)",
  "key": {"[1]": {"test_system": "human HCT116 cells", "test": "Inhibition of cell growth, CellTiter Glo assay", "conditions": "for GI50: Homo sapiens", "protocol": "The viability and proliferation of human HCT116 cells is measured using the “CellTiter Glo®” assay (Promega), which is a luminescent measure of the number of living cells. Sertraline and AC070 were tested at 10 concentrations and results are expressed as GI50, TGI, LC50 and IC50 relative to control cells (DMSO).\nThe CellTiter-Glo® assay is a homogeneous method for determining the number of viable cells in culture based on a quantification of the ATP present, an indicator of metabolically active cells. The homogeneous test procedure involves the addition of a single reagent (the CellTiter-Glo® reagent) directly to the cultured cells in serum-enriched medium.\nThe results of the test are reported in the following Tables 2 and 3 (Table 2: sertraline and Table 3: AC070): […]"}, "[2]": {"test_system": "p53 protein", "test": "Overexpression of p53 protein, Western blot", "type": "cell-based", "conditions": "10 μM", "protocol": "The compound AC014 is capable of inducing overexpression of p53 (FIG. 1).\nThe Western blot was carried out according to the protocol described in the following article: Amson R, Pece S, Lespagnol A, Vyas R, Mazzarol G, Tosoni D, Colaluca I, Viale G, Rodrigues-Ferreira S, Wynendaele J, Chaloin O, Hoebeke J, Marine J C, Di Fiore P P, Telerman A. Nat Med. 2011 Dec. 11; 18(1):91-9.\nThe following antibodies were used in the Western blot assay: anti-TCTP antibodies were generated against the whole human-derived TCTP. These polyclonal antibodies were purified by affinity column affinity coupled to TCTP (Agro-Bio). Anti-P53 1C12 mouse antibody (Cell Signaling Technology) was used at a dilution of 1/1000.\nSecondary antibodies (antirabbit and antimouse) conjugated to HRP were used at a dilution of 1/5000 to visualize the signals by Western blots."}, "[3]": {"conditions": "humans; cited from earlier work"}, "[4]": {"target": "T1, TCTP (Homo sapiens, UniProt P13693)", "T1 sequence (P13693 1-172)": "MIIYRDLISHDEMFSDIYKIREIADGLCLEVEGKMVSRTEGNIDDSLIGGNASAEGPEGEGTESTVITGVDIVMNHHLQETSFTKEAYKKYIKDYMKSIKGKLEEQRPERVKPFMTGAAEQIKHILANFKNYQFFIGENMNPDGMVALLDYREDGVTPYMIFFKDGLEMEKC", "conditions": "prior art section; read-out: affinity for TCTP, Kd; cited from earlier work"}},
  "note": "Read-outs that look alike come from different tables or passages of the source.",
  "data": [
    {"smiles": "CN[C@H]1CC[C@@H](c2ccc(Cl)c(Cl)c2)c2ccccc21", "note": "[sertraline, reference compound]", "values": [
      {"measurement": "TGI50 1", "setting": "[1]; HCT116, CellTiter Glo, determination 1", "value": 0.203, "unit": "µM"},
      {"measurement": "TGI50 2", "setting": "[1]; HCT116, CellTiter Glo, determination 2", "value": 0.229, "unit": "µM"},
      {"measurement": "TGI50 3", "setting": "[1]; HCT116, CellTiter Glo, determination 3", "value": 0.253, "unit": "µM"},
      {"measurement": "TGI50 Mean", "setting": "[1]; HCT116, CellTiter Glo, mean", "value": 0.228, "unit": "µM"},
      {"measurement": "TGI50 Median", "setting": "[1]; HCT116, CellTiter Glo, median", "value": 0.227, "unit": "µM"},
      {"measurement": "GI50", "setting": "[1]; HCT-116, read-out: GI50 1", "value": 125, "unit": "nM"},
      {"measurement": "GI50", "setting": "[1]; HCT-116, read-out: GI50 2", "value": 141, "unit": "nM"},
      {"measurement": "GI50", "setting": "[1]; HCT-116, read-out: GI50 3", "value": 159, "unit": "nM"},
      {"measurement": "GI50", "setting": "[1]; HCT-116, read-out: GI50 Mean", "value": 142, "unit": "nM"},
      {"measurement": "GI50", "setting": "[1]; HCT-116, read-out: GI50 Median", "value": 140, "unit": "nM"},
      {"measurement": "GI50", "setting": "[1]; HCT-116, read-out: cell growth inhibition constant GI50", "value": 141, "unit": "nM"},
      {"measurement": "expression of the p53 protein", "setting": "[2]", "value": "induced"},
      {"measurement": "maximum tolerated dose (MTD)", "setting": "[3]", "value": 400, "unit": "mg/day"},
      {"measurement": "Kd", "setting": "[4]", "value": 198000, "unit": "nM"}
    ]}
  ]
}
